The test system of this test is Dahl salt-sensitive rats. In words: Systolic blood pressure of Dahl salt-sensitive rats on high salt diet, PTB in drinking water (tail-cuff plethysmography). Type of test: in vivo, rat. Particulars: for Average systolic blood pressure: 13.5 grams/liter PTB in drinking water. How it is done:
An experimental study was undertaken to assess the effect on blood pressure of oral PTB given in drinking water to Dahl salt-sensitive rats, which are known to experience an increase in blood pressure upon administration of salt. In this study, salt was administered in the diet to two groups of rats, a placebo group that received salt but not PTB and an active group that received both salt and PTB in drinking water.
The study was conducted as follows: Twenty-four Dahl salt-sensitive male rats were fed regular rat chow containing 0.24% (w/w) sodium chloride for an acclimatization period. The rats were then switched to a high salt diet (4% NaCl and 1.5% KCl) and were randomly divided into two groups of twelve rats each—an active group supplied with drinking water containing 13.5 grams/liter PTB (prepared as described in Example 2, and a placebo group receiving ordinary drinking water. Food and water were available ad libitum to both groups over the 28-day course of the study. The systolic blood pressure of each rat was determined twice a week over the course of the study by the tail-cuff plethysmography method. Each recorded blood pressure was the average of 3-5 individual readings.
Systolic blood pressure rose progressively after high-salt intake in the placebo group, reaching 172±4 mm Hg at day 28.

“And” between values parts separate entries of the source, which are not always exact repeats. Equal values may be shown once.

As for `NCCS(=O)(=O)O.O=C([O-])O.[K+]` [PTB, potassium taurate bicarbonate], the “Blunting of the expected rise in systolic blood pressure (active vs placebo group)” value (by the end of the 28-day study, PTB in drinking water, high salt diet) is reported as 21 mm Hg. Moreover, the “Average systolic blood pressure” value runs as follows: (day 3 after administration, high salt diet (4% NaCl and 1.5% KCl)) 114 mm Hg; (day 7 after administration, high salt diet) 126 mm Hg; (day 10 after administration, high salt diet) 133 mm Hg; (day 14 after administration, high salt diet) 134 mm Hg; (day 17 after administration, high salt diet) 138±2 mm Hg and 138 mm Hg; (day 21 after administration, high salt diet) 150 mm Hg. Besides, the “Average systolic blood pressure” value by setting is: (day 24 after administration, high salt diet) 143±3 mm Hg and 143 mm Hg; (day 28 after administration, high salt diet) 151±3 mm Hg and 151 mm Hg.

Source of the values: patent US20040176442A1, “Potassium taurate bicarbonate and ascorbate” (priority 2003, published 2004).
